Legend:
HER1 (ErbB1) = HER1 (ErbB1) (Homo sapiens, UniProt P00533); assay: in vitro enzyme activity, HER1 (ErbB1); format: biochemical; details: human ErbB1, [γ-33P]ATP, poly(Glu, Tyr) substrate
In short: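 Radiometric filter-binding assay: human ErbB1, ErbB2 or ErbB4 (4-20 ng) with poly(Glu,Tyr) 4:1 substrate, MnCl2 and [γ-33P]ATP, 10 min at 30 °C, stopped with 3% phosphoric acid. Incorporated 33P counted by scintillation and compared with internal control CPM.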

OE19 cells = assay: CTG assay of OE19 cells; format: cell-based; details: Homo sapiens, 72 hours of cell culture, Cell Titer Glo
Procedure: OE19 cells with saturation of 80%-90% were digested with trypsin, centrifuged, resuspended and counted. The concentration of cells was adjusted to […]. OE19 cells were added to a 96-well cell culture plate to 8000 OE19 cells per well. The cells were cultured in a cell incubator containing 5% CO2 at 37° C. overnight.
The stock solution of the test compounds was serially 3-fold diluted with DMSO to a total of 10 concentrations. Before the start of the assay, the serially diluted test compounds were further diluted to 10× compound solutions (the compound with a highest concentration contains 1% DMSO) with cell culture medium under sterile conditions. The prepared 10× compound solutions were added to the cell culture plate, and the 10 μL compound solution was added to each well. In this way, the final concentrations of staurosporine as the standard control and all the test compounds were obtained starting from […] as the initial concentration in a 3-fold serial dilution to get 10 test concentrations.
After 72 hours of cell culture, the 96-well cell culture plate was taken out. Cell Titer Glo reagent was added at […], mixed, centrifuged, and incubated at room temperature in the dark for 10 minutes. The cell plate was placed in Envision for reading.
The inhibition rate was calculated according to original data as follows:
Inhibition %=(ZPE−sample detection value)/(ZPE−HPE)×100%
The well containing 10 mM staurosporine on DAY3 (the first day of the assay is the day when compounds were added, and DAY3 is the day when reading is perfomed) was used as the HPE (100% inhibition control) well, and the well containing 0.1% DMSO on DAY3 was used as the ZPE (0% inhibition control) well. Each concentration of test compounds was tested in duplicate.
Non-linear regression analysis was performed using the processed data and GraphPad Prism 6 analysis software to obtain a dose-response curve, and the half-inhibitory concentration (IC50) of the test compounds on OE19 cells was calculated.

[1] = tested on: subcutaneous xenograft tumor of human esophageal carcinoma OE21 cells; format: in vivo; details: 2/1.5 mg/kg; for Tumor volume (mm3) (Day 21): OE21 xenograft, Mean + SEM; for T/C (%) / TGI (%): day 21
Procedure: Purpose of the assay: to evaluate the in vivo efficacy of the compounds to be tested on subcutaneous xenograft tumor of human esophageal carcinoma OE21 cells in a BALB/c nude mouse model.
Animals of the assay: female BALB/c nude mice, 6-8 weeks old, weighing 17-23 grams; supplier: shanghai sippr bk laboratory animals Ltd.
Human esophageal carcinoma OE21 cells were cultured in monolayer in vitro. The culture conditions were RPMI-1640 medium plus 10% fetal bovine serum, 100 U/mL penicillin, 100 U/mL streptomycin and 2 mM glutamine, 37° C., 5% CO2. The passaging was performed by conventional digestion with trypsin-EDTA twice a week. When the cell saturation was 80%-90%, the cells were collected, counted and inoculated.
0.1 ml […] OE21 cells (PBS) were inoculated subcutaneously on the right back of each mouse. When the average tumor volume reached 112 mm^3, administration to each group was started.
The test compound was formulated into a 0.15 mg/mL to 0.3 mg/mL clear or suspension solution in the solvents of 10% NMP+10% ethylene glycol stearate+80% water. 6.4 Tumor measurement and assay index
The assay index is to investigate whether tumor growth is inhibited, delayed or cured. Tumor diameter was measured twice a week with vernier caliper. The calculation formula of tumor volume is: V=0.5a×b^2, wherein a and b represent the long and short diameters of tumor, respectively.
The antitumor efficacy of the compounds were evaluated by TGI (%) or relative tumor proliferation rate T/C (%). TGI (%) reflects the tumor growth inhibition rate. TGI (%) is calculated as follows: TGI (%)=[(1−(average tumor volume at the end of administration for a certain treatment group−average tumor volume at the beginning of administration for this treatment group))/(average tumor volume at the end of treatment for a solvent control group−average tumor volume at the beginning of administration for this solvent control group)]×100%.
Relative tumor proliferation rate T/C (%): the calculation formula is as follows: T/C (%)=average tumor volume at the end of administration for a certain treatment group/average tumor volume at the end of treatment for the solvent control group×100%.
Statistical analysis included the mean and standard error (SEM) of tumor volume at each time point in each group. One-way ANOVA was used for comparison among three or more groups. […] SPSS 17.0 was used for all data analysis. p<0.05 is considered a significant difference.

CYP2C9 = biological target: T1, CYP2C9 (Homo sapiens, UniProt P11712); assay: inhibition of CYP enzyme activity in human liver microsome, CYP2C9; format: in vitro ADME
T1 construct: in the assay of CYP enzyme activity in human liver microsome; from tissue; host or cells: human liver microsome
Text: (§1) The results of the compounds disclosed herein and the reference compound Poziotinib in the assay of CYP enzyme activity in human liver microsome were shown in the following table (Table 8).

CYP2D6 = biological target: T2, CYP2D6 (Homo sapiens, UniProt P10635); assay: inhibition of CYP enzyme activity in human liver microsome, CYP2D6; format: in vitro ADME
T2 construct: in the assay of CYP enzyme activity in human liver microsome; from tissue; host or cells: human liver microsome
Text: as §1

T1 sequence (P11712 whole entry): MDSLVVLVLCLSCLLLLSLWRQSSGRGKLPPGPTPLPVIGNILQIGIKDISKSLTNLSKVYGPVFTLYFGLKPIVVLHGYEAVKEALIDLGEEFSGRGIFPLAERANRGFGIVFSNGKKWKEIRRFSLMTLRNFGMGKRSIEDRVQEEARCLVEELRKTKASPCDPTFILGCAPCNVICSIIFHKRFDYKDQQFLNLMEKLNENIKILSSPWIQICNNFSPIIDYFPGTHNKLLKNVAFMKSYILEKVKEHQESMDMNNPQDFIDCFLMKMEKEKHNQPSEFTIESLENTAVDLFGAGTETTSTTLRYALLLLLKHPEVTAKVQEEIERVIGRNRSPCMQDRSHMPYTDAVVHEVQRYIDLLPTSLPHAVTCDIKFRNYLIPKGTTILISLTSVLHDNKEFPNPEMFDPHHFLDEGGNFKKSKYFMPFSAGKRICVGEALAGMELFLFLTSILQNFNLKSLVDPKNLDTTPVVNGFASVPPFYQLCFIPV
T2 sequence (P10635 whole entry): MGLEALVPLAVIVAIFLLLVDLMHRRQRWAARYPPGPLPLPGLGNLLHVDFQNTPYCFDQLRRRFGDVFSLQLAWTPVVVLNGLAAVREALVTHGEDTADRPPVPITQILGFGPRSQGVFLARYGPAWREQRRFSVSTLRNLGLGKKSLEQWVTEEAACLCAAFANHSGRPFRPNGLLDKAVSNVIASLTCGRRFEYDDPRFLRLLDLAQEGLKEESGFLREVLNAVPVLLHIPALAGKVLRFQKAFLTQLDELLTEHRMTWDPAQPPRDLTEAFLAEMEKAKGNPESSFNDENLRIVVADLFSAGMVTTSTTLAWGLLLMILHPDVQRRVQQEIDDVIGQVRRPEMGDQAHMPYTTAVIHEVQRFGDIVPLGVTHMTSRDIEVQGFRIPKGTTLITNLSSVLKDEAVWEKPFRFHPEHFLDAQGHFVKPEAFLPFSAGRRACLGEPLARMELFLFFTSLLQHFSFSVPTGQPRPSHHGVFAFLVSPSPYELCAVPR
Sequence of HER1 (ErbB1) (P00533 25-1210): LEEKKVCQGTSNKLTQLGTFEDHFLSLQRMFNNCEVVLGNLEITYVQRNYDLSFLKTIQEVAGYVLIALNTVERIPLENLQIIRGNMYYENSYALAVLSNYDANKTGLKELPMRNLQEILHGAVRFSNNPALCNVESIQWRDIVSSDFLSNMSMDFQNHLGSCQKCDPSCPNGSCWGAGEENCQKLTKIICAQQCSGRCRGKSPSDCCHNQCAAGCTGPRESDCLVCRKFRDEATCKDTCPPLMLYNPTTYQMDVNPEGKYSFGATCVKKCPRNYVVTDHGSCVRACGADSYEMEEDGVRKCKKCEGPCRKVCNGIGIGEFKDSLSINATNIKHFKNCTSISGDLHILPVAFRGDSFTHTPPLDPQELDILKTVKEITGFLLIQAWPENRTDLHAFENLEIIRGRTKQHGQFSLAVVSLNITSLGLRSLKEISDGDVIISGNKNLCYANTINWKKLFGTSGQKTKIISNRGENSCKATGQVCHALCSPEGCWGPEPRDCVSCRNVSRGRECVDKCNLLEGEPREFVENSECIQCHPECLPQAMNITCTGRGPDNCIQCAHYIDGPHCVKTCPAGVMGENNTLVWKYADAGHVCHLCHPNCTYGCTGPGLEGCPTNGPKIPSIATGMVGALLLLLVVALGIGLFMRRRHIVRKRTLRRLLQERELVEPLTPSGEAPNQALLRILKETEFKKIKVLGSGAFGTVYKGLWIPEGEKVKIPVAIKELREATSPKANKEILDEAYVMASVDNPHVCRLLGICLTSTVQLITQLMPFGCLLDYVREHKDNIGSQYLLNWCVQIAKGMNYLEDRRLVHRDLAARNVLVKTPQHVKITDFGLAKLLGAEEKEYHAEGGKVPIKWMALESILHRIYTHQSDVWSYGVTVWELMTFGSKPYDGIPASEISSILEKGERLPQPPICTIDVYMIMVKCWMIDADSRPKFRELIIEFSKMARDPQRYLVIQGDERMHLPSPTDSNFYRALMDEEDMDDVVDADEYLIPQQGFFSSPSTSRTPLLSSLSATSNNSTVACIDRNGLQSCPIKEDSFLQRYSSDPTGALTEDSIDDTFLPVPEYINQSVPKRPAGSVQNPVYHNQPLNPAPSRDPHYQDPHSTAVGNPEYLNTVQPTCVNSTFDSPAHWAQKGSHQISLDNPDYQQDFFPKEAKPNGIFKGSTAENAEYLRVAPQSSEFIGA

SMILES | IC50 (HER1 (ErbB1)) [nM] | IC50 (OE19 cells) [nM] | Tumor volume (mm3) (Day 21) [1] | T/C (%) [1] [%] | TGI (%) [1] [%] | IC50 (CYP2C9) [nM] | activity on CYP2C9, times better than that of the reference compound (CYP2C9; versus Poziotinib) [times] | IC50 (CYP2D6) [nM] | activity on CYP2D6, times better than that of the reference compound (CYP2D6; versus Poziotinib) [times]
C=CC(=O)N1[C@@H]2CC[C@H]1C[C@H](Nc1cc3c(Nc4ccc(Cl)c(Cl)c4F)ncnc3cc1OC)C2 [Example 38] | 8 | 1.2 | 55 ± 13 | 5.82 | 106.65 | 16000 | 2 | 6000 | 6
C=CC(=O)N1[C@@H]2CC[C@H]1C[C@H](Oc1cc3c(Nc4ccc(Cl)c(Cl)c4F)ncnc3cc1OC)C2 [Example 8] | 6 | 0.48 |  |  |  |  |  |  | 
C=CC(=O)N1CCC(Oc2cc3c(Nc4ccc(Cl)c(Cl)c4F)ncnc3cc2OC)CC1 [Poziotinib, reference compound] |  |  | 57 ± 7 | 6.05 | 106.65 | 8000 |  | 1000 | 

— patent US20210078958A1, “QUINAZOLINE DERIVATIVE AND USE THEREOF” (MEDSHINE DISCOVERY INC., priority 2017, published 2021)
